Data as given in patent US12454531B2, “Substituted piperazine derivatives useful as T cell activators” (BRISTOL-MYERS SQUIBB COMPANY, priority 2019, dated 2025).
Where two headings read alike, the source gives them in different places.

How the values were obtained:
[1] = tested on: Human whole blood IFN-γ; experiment: Assay 10: Human Whole Blood IFN-γ Assay; format: cell-based; conditions: anti-CD3 and anti-CD28 stimulation, 100% = 3 μM reference compound, read-out: INFg Whole Blood Normalized Agonist EC50
Procedure: Assay 10: Human Whole Blood IFN-γ Assay
Human venous whole blood (22.5 μL per well), obtained from healthy donors, was pre-treated with compounds for one hour at 37° C. in a humidified 95% air/5% CO2 incubator. The blood was stimulated with 2.5 μL anti-human CD3 and anti-CD28 mAb at a final concentration of 1 μg/mL each for 24 hours at 37° C. IFN-7 in the supernatants was measured using AlphLISA kit (Cat #AL217).

[2] = target: DGKζ (Homo sapiens (Human), UniProt Q13574); experiment: Assay 1 or 2: In Vitro DGK Inhibition Assays (DGKζ LIPGLO, extruded liposome); format: biochemical; conditions: extruded liposome substrate, 150 μM ATP
Procedure: (§1) Assay 1: In Vitro DGK Inhibition Assays—Method A
(§2) The DGKα and DGKζ reactions were performed using either extruded liposome (DGKα and DGKζ LIPGLO assays) or detergent/lipid micelle substrate (DGKα and DGKζ assays). The reactions were carried out in 50 mM MOPS pH 7.5, 100 mM NaCl, 10 mM MgCl2, 1 μM CaCl2), and 1 mM DTT (assay buffer). The reactions using a detergent/lipid micelle substrate also contained 50 mM octyl B-D-glucopyranoside. The lipid substrate concentrations were 11 mM PS and 1 mM DAG for the detergent/lipid micelle reactions. The lipid substrate concentrations were 2 mM PS, 0.25 mM DAG, and 2.75 mM PC for the extruded liposome reactions. The reactions were carried out in 150 μM ATP. The enzyme concentrations for the DGKα and DGKζ were 5 nM
(§3) The compound inhibition studies were carried out as follows: 50 nL droplets of each test compound (top concentration 10 mM with 11 point, 3-fold dilution series for each compound) solubilized in DMSO were transferred to wells of a white 1536 well plate (Corning 3725). A 5 mL enzyme/substrate solution at 2× final reaction concentration was prepared by combining 2.5 mL 4× enzyme solution (20 nM DGKα or DGKζ (prepared as described below) in assay buffer) and 2.5 mL of either 4× liposome or 4× detergent/lipid micelle solution (compositions described below) and incubated at room temperature for 10 minutes. Next, 1 μL 2× enzyme/substrate solution was added to wells containing the test compound and reactions were initiated with the addition of 1 μL 300 uM ATP. The reactions were allowed to proceed for 1 hr, after which 2 μL Glo Reagent (Promega V9101) was added and incubated for 40 minutes. Next, 4 μL Kinase Detection Reagent was added and incubated for 30 minutes. Luminescence was recorded using an EnVision microplate reader. […] The compounds were evaluated at 11 concentrations to determine IC50.
(§4) The lipid composition was 5 mol % DAG (Avanti 8008110), 40 mol % PS (Avanti 840035P), and 55 mol % PC (Avanti 850457) at a total lipid concentration of 15.2 mg/mL for the 4× liposome solution. The PC, DAG, and PS were dissolved in chloroform, combined, and dried in vacuo to a thin film. The lipids were hydrated to 20 mM in 50 mM MOPS pH 7.5, 100 mM NaCl, 5 mM MgCl2, and were freeze-thawed five times. The lipid suspension was extruded through a 100 nm polycarbonate filter eleven times. […] The liposome preparation was stored at 4° C. for as long as four weeks.
(§5) Baculovirus amplification was achieved using infected Sf9 cells at 1:1500 virus/cell ratios, and grown for 65 hours at 27° C. post-transfection.
(§6) The cells were lysed using nitrogen cavitation method with a nitrogen bomb (Parr Instruments), and the lysates were clarified by centrifugation. […] The three steps column chromatography included nickel affinity resin capture (i.e. HisTrap FF crude, GE Healthcare), followed by size exclusion chromatography (i.e. HiLoad 26/600 Superdex 200 prep grade, GE Healthcare for DGK-alpha, and HiPrep 26/600 Sephacryl S 300_HR, GE Healthcare for DGK-zeta). The third step was ion exchange chromatography, and differed for the two isoforms. DGKα was polished using Q-Sepharose anion exchange chromatography (GE Healthcare). DGKζ was polished using SP Sepharose cation exchange chromatography (GE Healthcare). The proteins were delivered at concentrations of ≥2 mg/mL. The formulation buffers were identical for both proteins: 50 mM Hepes, pH 7.2, 500 mM NaCl, 10% v/v glycerol, 1 mM TCEP, and 0.5 mM EDTA.
Assay 2: In Vitro DGK Inhibition Assays—Method B
The DGKα and DGKζ reactions were performed using either extruded liposome (DGKα and DGKζ LIPGLO assays) or detergent/lipid micelle substrate (DGKα and DGKζ assays).

[3] = target: DGKα (Homo sapiens (Human), UniProt P23743); experiment: Assay 1: In Vitro DGK Inhibition Assays, Method A (DGKα LIPGLO, extruded liposome); format: biochemical; conditions: extruded liposome substrate, 150 μM ATP
Procedure: as §1, §2, §3, §4, §5, §6

DGKα, sequence (P23743 whole entry): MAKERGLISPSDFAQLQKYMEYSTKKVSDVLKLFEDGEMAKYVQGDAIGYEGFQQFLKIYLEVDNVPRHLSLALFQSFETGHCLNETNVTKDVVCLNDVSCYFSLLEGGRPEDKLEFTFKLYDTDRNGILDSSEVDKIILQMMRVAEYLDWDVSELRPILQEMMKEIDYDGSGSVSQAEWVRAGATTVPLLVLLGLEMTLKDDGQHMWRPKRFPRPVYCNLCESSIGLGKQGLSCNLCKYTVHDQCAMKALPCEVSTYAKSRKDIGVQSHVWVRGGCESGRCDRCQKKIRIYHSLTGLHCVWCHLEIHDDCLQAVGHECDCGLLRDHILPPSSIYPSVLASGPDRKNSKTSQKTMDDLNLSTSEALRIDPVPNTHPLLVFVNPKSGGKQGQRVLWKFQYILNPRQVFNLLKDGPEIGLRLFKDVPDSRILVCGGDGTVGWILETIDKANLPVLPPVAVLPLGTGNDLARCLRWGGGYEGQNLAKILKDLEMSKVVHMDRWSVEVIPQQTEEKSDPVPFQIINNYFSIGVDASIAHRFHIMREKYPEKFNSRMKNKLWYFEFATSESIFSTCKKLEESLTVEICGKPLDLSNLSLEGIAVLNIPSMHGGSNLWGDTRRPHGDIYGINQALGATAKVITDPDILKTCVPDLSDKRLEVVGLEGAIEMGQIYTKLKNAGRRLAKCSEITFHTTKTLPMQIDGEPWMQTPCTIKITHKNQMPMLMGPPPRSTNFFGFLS
DGKζ, sequence (Q13574 other isoform, or with tags, fused parts or gaps): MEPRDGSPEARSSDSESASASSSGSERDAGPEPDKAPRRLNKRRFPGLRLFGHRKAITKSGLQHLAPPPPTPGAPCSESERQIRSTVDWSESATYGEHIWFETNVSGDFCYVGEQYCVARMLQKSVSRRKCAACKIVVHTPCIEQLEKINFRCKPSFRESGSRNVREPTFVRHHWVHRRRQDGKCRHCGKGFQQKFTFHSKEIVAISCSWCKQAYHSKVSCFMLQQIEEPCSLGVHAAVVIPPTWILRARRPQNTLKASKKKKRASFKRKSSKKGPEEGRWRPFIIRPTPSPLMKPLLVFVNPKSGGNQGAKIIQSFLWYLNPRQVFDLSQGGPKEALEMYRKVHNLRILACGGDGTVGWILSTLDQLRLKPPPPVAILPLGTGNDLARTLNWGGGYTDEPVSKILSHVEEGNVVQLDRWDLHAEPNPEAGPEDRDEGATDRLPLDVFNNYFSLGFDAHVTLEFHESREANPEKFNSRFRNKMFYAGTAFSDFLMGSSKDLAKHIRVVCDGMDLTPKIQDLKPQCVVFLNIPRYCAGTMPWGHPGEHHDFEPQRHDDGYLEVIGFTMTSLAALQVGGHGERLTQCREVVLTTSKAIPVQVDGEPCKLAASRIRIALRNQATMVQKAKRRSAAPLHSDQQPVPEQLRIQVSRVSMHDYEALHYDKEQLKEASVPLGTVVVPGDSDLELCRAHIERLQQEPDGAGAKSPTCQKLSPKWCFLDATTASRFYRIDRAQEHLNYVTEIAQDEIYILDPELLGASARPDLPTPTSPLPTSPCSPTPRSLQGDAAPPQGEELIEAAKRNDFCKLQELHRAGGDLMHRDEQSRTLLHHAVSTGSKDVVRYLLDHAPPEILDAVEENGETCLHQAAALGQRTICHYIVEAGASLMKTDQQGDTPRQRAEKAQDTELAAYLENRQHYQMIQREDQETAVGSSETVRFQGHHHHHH

## CC(C)OC(=O)C(c1ccc(F)cc1)N1C[C@H](C)N(c2cc(=O)n(C)c3ccc(C#N)nc23)C[C@H]1C (single isomer, unassigned) [Example 1]
[1]; 24 hours
  EC50: 0.61 µM

## C[C@@H]1CN(c2cc(=O)n(C)c3ccc(C#N)nc23)[C@@H](C)CN1C(C(=O)O)c1ccc(F)cc1 (single isomer, unassigned) [Example 10]
[1]; Homo sapiens, 24 h
  EC50: 20 µM

## C[C@@H]1CN(c2cc(=O)n(C)c3ccc(C#N)nc23)[C@@H](C)CN1C(C(=O)N1CCCCC1)c1ccc(F)cc1 (single isomer, unassigned) [Example 11]
[2]
  IC50: 1.22 µM
[3]
  IC50: 0.51 µM

## COC(=O)CC(c1ccc(F)cc1)N1C[C@H](C)N(c2cc(=O)n(C)c3ccc(C#N)nc23)C[C@H]1C (single isomer, unassigned) [Example 31]
[1]; 24 hours
  EC50: 0.15 µM

## COC(=O)CC(c1ccc(F)cc1)N1C[C@H](C)N(c2cc(=O)n(C)c3ccc(C#N)nc23)C[C@H]1C (single isomer, unassigned) [Example 32]
[1]; 24 hours
  EC50: 1.81 µM

## C[C@@H]1CN(c2cc(=O)n(C)c3ccc(C#N)nc23)[C@@H](C)CN1C(CC(=O)NC(C)(C)C)c1ccc(F)cc1 (single isomer, unassigned) [Example 33]
[2]
  IC50: 11.1 µM
[3]
  IC50: 6.36 µM

## C[C@@H]1CN(c2cc(=O)n(C)c3ccc(C#N)nc23)[C@@H](C)CN1C(CC(=O)NC(C)(C)C)c1ccc(F)cc1 (single isomer, unassigned) [Example 34]
[2]
  IC50: 6.84 µM
[3]
  IC50: 4.04 µM

## CC(C(=O)NC1CCCC1)N1C[C@H](C)N(c2cc(=O)n(C)c3ccc(C#N)nc23)C[C@H]1C (single isomer, unassigned) [Example 43]
[1]; Homo sapiens, 24 h
  EC50: 20 µM

## CC(C(=O)NC1CCCC1)N1C[C@H](C)N(c2cc(=O)n(C)c3ccc(C#N)nc23)C[C@H]1C (single isomer, unassigned) [Example 44]
[1]; 24 hours
  EC50: 20 µM

## C[C@@H]1CN(c2cc(=O)n(C)c3ccc(C#N)nc23)[C@@H](C)CN1C(c1ccc(F)cc1)P(C)(C)=O (single isomer, unassigned) [Example 49]
[1]; Homo sapiens, 24 h
  EC50: 20 µM

## C[C@@H]1CN(c2cc(=O)n(C)c3ccc(C#N)nc23)[C@@H](C)CN1C(c1ccc(F)cc1)P(C)(C)=O (single isomer, unassigned) [Example 50]
[1]; 24 hours
  EC50: 20 µM

## COC(=O)C(c1ccc(F)cc1)N1C[C@H](C)N(c2cc(=O)n(C)c3ccc(C#N)nc23)C[C@H]1C (stereo partly drawn) [Example 7, Methyl 2-((2R,5S)-4-(6-cyano-1-methyl-2-oxo-1,2-dihydro-1,5-naphthyridin-4-yl)-2,5-dimethylpiperazin-1-yl)-2-(4-fluorophenyl)acetate]
[1]; Homo sapiens, 24 h
  EC50: 0.1 µM

## C[C@@H]1CN(c2cc(=O)n(C)c3ccc(C#N)nc23)[C@@H](C)CN1C(C(N)=O)c1ccc(F)cc1 (stereo partly drawn) [Example 13, 2-((2R,5S)-4-(6-cyano-1-methyl-2-oxo-1,2-dihydro-1,5-naphthyridin-4-yl)-2,5-dimethylpiperazin-1-yl)-2-(4-fluorophenyl)acetamide]
[1]; Homo sapiens, 24 h
  EC50: 20 µM

## C[C@@H]1CN(c2cc(=O)n(C)c3ccc(C#N)nc23)[C@@H](C)CN1C(C(N)=O)c1ccc(F)cc1 (stereo partly drawn) [Example 14, 2-((2R,5S)-4-(6-cyano-1-methyl-2-oxo-1,2-dihydro-1,5-naphthyridin-4-yl)-2,5-dimethylpiperazin-1-yl)-2-(4-fluorophenyl)acetamide]
[1]; 24 hours
  EC50: 20 µM

## C[C@@H]1CN(c2cc(=O)n(C)c3ccc(C#N)nc23)[C@@H](C)CN1C(C(=O)N1CCCC1)c1ccc(F)cc1 (stereo partly drawn) [Example 21, 8-((2S,5R)-4-(1-(4-fluorophenyl)-2-oxo-2-(pyrrolidin-1-yl)ethyl)-2,5-dimethylpiperazin-1-yl)-5-methyl-6-oxo-5,6-dihydro-1,5-naphthyridine-2-carbonitrile]
[1]; 24 hours
  EC50: 2.56 µM

## C[C@@H]1CN(c2cc(=O)n(C)c3ccc(C#N)nc23)[C@@H](C)CN1C(C(=O)N1CCCC1)c1ccc(F)cc1 (stereo partly drawn) [Example 22, 8-((2S,5R)-4-(1-(4-fluorophenyl)-2-oxo-2-(pyrrolidin-1-yl)ethyl)-2,5-dimethylpiperazin-1-yl)-5-methyl-6-oxo-5,6-dihydro-1,5-naphthyridine-2-carbonitrile]
[1]; 24 hours
  EC50: 9.03 µM

## C[C@@H]1CN(c2cc(=O)n(C)c3ccc(C#N)nc23)[C@@H](C)CN1C(C(=O)N(C)C)c1ccc(F)cc1 (stereo partly drawn) [Example 23, 2-((2R,5S)-4-(6-cyano-1-methyl-2-oxo-1,2-dihydro-1,5-naphthyridin-4-yl)-2,5-dimethylpiperazin-1-yl)-2-(4-fluorophenyl)-N,N-dimethylacetamide]
[1]; Homo sapiens, 24 h
  EC50: 20 µM

## C[C@@H]1CN(c2cc(=O)n(C)c3ccc(C#N)nc23)[C@@H](C)CN1C(C(=O)N(C)C)c1ccc(F)cc1 (stereo partly drawn) [Example 24, 2-((2R,5S)-4-(6-cyano-1-methyl-2-oxo-1,2-dihydro-1,5-naphthyridin-4-yl)-2,5-dimethylpiperazin-1-yl)-2-(4-fluorophenyl)-N,N-dimethylacetamide]
[1]; 24 hours
  EC50: 20 µM

## CNC(=O)C(c1ccc(F)cc1)N1C[C@H](C)N(c2cc(=O)n(C)c3ccc(C#N)nc23)C[C@H]1C (stereo partly drawn) [Example 25, 2-((2R,5S)-4-(6-cyano-1-methyl-2-oxo-1,2-dihydro-1,5-naphthyridin-4-yl)-2,5-dimethylpiperazin-1-yl)-2-(4-fluorophenyl)-N-methylacetamide]
[1]; 24 hours
  EC50: 5.12 µM

## C[C@@H]1CN(c2cc(=O)n(C)c3ccc(C#N)nc23)[C@@H](C)CN1C(C(=O)NCCO)c1ccc(F)cc1 (stereo partly drawn) [Example 27, 2-((2R,5S)-4-(6-cyano-1-methyl-2-oxo-1,2-dihydro-1,5-naphthyridin-4-yl)-2,5-dimethylpiperazin-1-yl)-2-(4-fluorophenyl)-N-(2-hydroxyethyl)acetamide]
[1]; Homo sapiens, 24 h
  EC50: 1.54 µM

## CC(C(=O)Nc1cnn(C)c1)N1C[C@H](C)N(c2cc(=O)n(C)c3ccc(C#N)nc23)C[C@H]1C (stereo partly drawn) [Example 45, 2-((2R,5S)-4-(6-cyano-1-methyl-2-oxo-1,2-dihydro-1,5-naphthyridin-4-yl)-2,5-dimethylpiperazin-1-yl)-N-(1-methyl-1H-pyrazol-4-yl)propanamide]
[1]; Homo sapiens, 24 h
  EC50: 20 µM

## CC(C(=O)Nc1cnn(C)c1)N1C[C@H](C)N(c2cc(=O)n(C)c3ccc(C#N)nc23)C[C@H]1C (stereo partly drawn) [Example 46, 2-((2R,5S)-4-(6-cyano-1-methyl-2-oxo-1,2-dihydro-1,5-naphthyridin-4-yl)-2,5-dimethylpiperazin-1-yl)-N-(1-methyl-1H-pyrazol-4-yl)propanamide]
[1]; 24 hours
  EC50: 20 µM

## CC(C(=O)NC1CC1)N1C[C@H](C)N(c2cc(=O)n(C)c3ccc(C#N)nc23)C[C@H]1C (stereo partly drawn) [Example 47, 2-((2R,5S)-4-(6-cyano-1-methyl-2-oxo-1,2-dihydro-1,5-naphthyridin-4-yl)-2,5-dimethylpiperazin-1-yl)-N-cyclopropylpropanamide]
[1]; Homo sapiens, 24 h
  EC50: 20 µM

## CC(C(=O)NC1CC1)N1C[C@H](C)N(c2cc(=O)n(C)c3ccc(C#N)nc23)C[C@H]1C (stereo partly drawn) [Example 48, 2-((2R,5S)-4-(6-cyano-1-methyl-2-oxo-1,2-dihydro-1,5-naphthyridin-4-yl)-2,5-dimethylpiperazin-1-yl)-N-cyclopropylpropanamide]
[1]; 24 hours
  EC50: 20 µM
